Source: US20160130577A1, “NUCLEOTIDE SEQUENCE MOTIFS DIRECTING NUCLEIC ACID LOCATION TO EXTRACELLULAR VESICLES” (FUNDACIÓN CENTRO NACIONAL DE INVESTIGACIONES …, priority 2012, published 2016)

Assays:
hnRNPA2B1 sumoylation = experiment: Western blot of hnRNPA2B1 molecular weight in EVs with sumoylation inhibitor; format: cell-based, human; conditions: anacardic acid 100 μM 4 h, then diluted 1:4 overnight; versus DMSO
Method: (§1) To confirm whether the higher molecular weight of EVs hnRNPA2B1 was due to sumoylation, we cultured Jurkat T cells in the presence of the specific sumoylation inhibitor anacardic acid (AA). Briefly, cells were cultured with anacardic acid (100 μM) (Sigma) or 6 DMSO for 4 h at 37° C. Cells were then diluted 1:4 and incubated overnight. EVs and cells were resuspended in buffer 1 for western blotting or hnRNPA2B1 immunoprecipitation (FIG. 13B).

Jurkat T cells [1] = experiment: qPCR of miRNA levels in EVs from control or AA-treated cells; format: cell-based, human; conditions: anacardic acid 100 μM versus DMSO
hnRNPA2B1 [2] = experiment: hnRNPA2B1 IP-qPCR from EV lysates of control or AA-treated cells; format: cell-based, human; conditions: EV lysates from AA-treated versus control cells
Method: as §1

Jurkat T cells [3] = experiment: Western blot of EVs for CD81 and cytochrome c (EV secretion, cell death); format: cell-based; conditions: anacardic acid versus DMSO
Method: (§2) FIG. 13. Assessment of sumoylation inhibitor efficiency. (A) Western blot analysis of hnRNPA1 in T cells and their EVs. (B) Representative western blot showing the decrease in sumo-conjugated proteins in the presence of anacardic acid. Cells were incubated with anacardic acid (AA) or DMSO (control condition, CONT) and cell extracts were blotted for SUMO-1. (C) Representative western blot showing no changes in EV secretion and cell death in the presence of anacardic acid. Cells were incubated with anacardic acid (AA) or DMSO (CONT), and EV were purified by ultracentrifugation and blotted for CD81 and cytochrome c.
as §1

sumo-conjugated proteins = experiment: Western blot of cell extracts for SUMO-1 (sumoylation inhibitor efficiency); format: cell-based, human; conditions: anacardic acid versus DMSO
Method: as §2, §1

hnRNPA2B1 [4] = experiment: pull-down of EV extracts with biotinylated miRNA-coated streptavidin beads, mass spectrometry; format: binding, human
Method: To analyze the molecular mechanism that controls the packaging of miRNAs presenting the motifs of the invention in EVs, a search was performed of the proteins present in EVs and which bind specifically to EVmiRNAs. For this purpose, extracts of isolated EVs from human T lymphoblasts were incubated in the presence of streptavidin beads coated with biotinylated EVmiRNA miR-198, or with biotinylated CLmiRNA miR-17. The analysis of EVs-coupled beads was performed by FACS. Briefly, Evs were obtained by ultracentrifugation and sucrose gradient flotation, resuspended in PBS and coupled to 4 μm aldehyde-sulfate beads (Invitrogen) overnight at room temperature in rotation. Beads were washed and blocked for 60 min at room temperature in 4% BSA in PBS. For intracellular staining, bead-bound Evs were permeabilized and fixed for 5 min at room temperature with 0.2% TX, 2% FA in PBS. […] Beads were acquired on a FACSCalibur (BD) and data were analyzed with FlowJo software (Tree Star). […] Briefly, the peptides were resuspended and injected onto a C-18 reversed phase (RP) nano-column (75 μm 2 I.D.×25 cm, Acclaim PepMap100, Thermo Scientific) and analyzed in a continuous acetonitrile gradient consisting of 0-43% B in 90 min, 50-90% B in 1 min (B=90% acetonitrile, 0.5% acetic acid). […] SEQUEST results were validated using the probability ratio method and false discovery rates calculated using the refined method. […]
Target sequence in this assay (P22626 15-353 limits assumed): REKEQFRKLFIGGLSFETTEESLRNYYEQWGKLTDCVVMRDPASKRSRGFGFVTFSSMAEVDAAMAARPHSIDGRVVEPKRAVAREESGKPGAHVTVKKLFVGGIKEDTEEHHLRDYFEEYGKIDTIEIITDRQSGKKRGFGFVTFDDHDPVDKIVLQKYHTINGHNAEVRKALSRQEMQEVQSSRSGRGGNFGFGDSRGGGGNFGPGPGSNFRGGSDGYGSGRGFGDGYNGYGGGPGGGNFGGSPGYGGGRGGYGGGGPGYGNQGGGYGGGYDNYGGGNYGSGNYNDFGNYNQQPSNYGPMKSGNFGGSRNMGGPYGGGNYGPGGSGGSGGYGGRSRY

HNRPC = target: T1, HNRPC (Homo sapiens, UniProt P07910); experiment: as above; format: binding; conditions: HNRPC precipitated from EV extracts of human T lymphoblasts
T1 construct: endogenous in cells; host or cells: extracellular vesicles from primary human T lymphoblasts
T1 sequence (P07910 whole entry): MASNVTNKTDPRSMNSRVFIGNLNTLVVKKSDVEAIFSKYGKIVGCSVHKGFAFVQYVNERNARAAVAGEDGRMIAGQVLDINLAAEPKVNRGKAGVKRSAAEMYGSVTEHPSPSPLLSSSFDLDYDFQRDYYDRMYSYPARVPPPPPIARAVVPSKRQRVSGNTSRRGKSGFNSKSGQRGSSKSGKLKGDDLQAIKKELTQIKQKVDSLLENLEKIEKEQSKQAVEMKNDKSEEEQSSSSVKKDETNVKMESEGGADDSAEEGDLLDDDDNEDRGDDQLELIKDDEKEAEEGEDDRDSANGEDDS
Method: (§3) To analyze the molecular mechanism that controls the packaging of miRNAs presenting the motifs of the invention in EVs, a search was performed of the proteins present in EVs and which bind specifically to EVmiRNAs. For this purpose, extracts of isolated EVs from human T lymphoblasts were incubated in the presence of streptavidin beads coated with biotinylated EVmiRNA miR-198, or with biotinylated CLmiRNA miR-17. The analysis of EVs-coupled beads was performed by FACS. Briefly, Evs were obtained by ultracentrifugation and sucrose gradient flotation, resuspended in PBS and coupled to 4 μm aldehyde-sulfate beads (Invitrogen) overnight at room temperature in rotation. Beads were washed and blocked for 60 min at room temperature in 4% BSA in PBS. For intracellular staining, bead-bound Evs were permeabilized and fixed for 5 min at room temperature with 0.2% TX, 2% FA in PBS. Beads were incubated with antihnRNPA2B1 (Santa Cruz) or anti-CD81 (5A6, Santa Cruz) for 1 h at 4° C., washed and incubated with Alexa-488-goat-anti-mouse IgG (Invitrogen) for 30 min. Beads were acquired on a FACSCalibur (BD) and data were analyzed with FlowJo software (Tree Star). Negative controls were obtained with EV-coupled beads incubated with the secondary antibody. The proteins collected were identified by high performance mass spectrometry. As negative controls, uncoated or poly-A-coated streptavidin beads were used. Briefly, proteins were in-gel digested using a previously-described protocol. Briefly, 75 μl of beads were suspended in 25 μl sample buffer and loaded in 2.8-cm-wide wells of an SDS-PAGE gel. The run was stopped as soon as the front entered 3 mm into the resolving gel; the protein band was visualized by Coomassie staining, excised and digested overnight at 37° C. with 60 ng/μl trypsin at 5:1 protein:trypsin (w/w) ratio in 50 mM ammonium bicarbonate, pH 8.8 containing 10% ACN. The resulting tryptic peptides were extracted by 1 h incubation in 12 mM ammonium bicarbonate, pH 8.8. TFA was added to a final concentration of 1% and the peptides were finally desalted onto C18 Oasis cartridges and dried down. Peptide identification by mass spectrometry was performed as described. Briefly, the peptides were resuspended and injected onto a C-18 reversed phase (RP) nano-column (75 μm 2 I.D.×25 cm, Acclaim PepMap100, Thermo Scientific) and analyzed in a continuous acetonitrile gradient consisting of 0-43% B in 90 min, 50-90% B in 1 min (B=90% acetonitrile, 0.5% acetic acid). A flow rate of ca. 300 nL/min was used to elute peptides from the RP nano-column to an emitter nanospray needle for real time ionization and peptide fragmentation on an LTQ XP Orbitrap mass spectrometer (Thermo Fisher, San José, Calif., USA). An enhanced FT spectrum (30.000 resolution) followed by MS/MS spectra from most intense ten parent ions were performed along the chromatographic run (130 min). Dynamic exclusion was set at 30 s. The MS/MS raw files were searched against the Human Swissprot database (Uniprot release 14.0, 19929 sequence entries for human) supplemented with porcine trypsin and bacterial Streptavidin. SEQUEST results were validated using the probability ratio method and false discovery rates calculated using the refined method. Peptide and scan counting was performed assuming as positive events those with a FDR equal to or lower than 5%.

HNRPU = target: T2, HNRPU (Homo sapiens, UniProt Q00839); experiment: as above; format: binding; conditions: HNRPU precipitated from EV extracts of human T lymphoblasts
T2 construct: endogenous in cells; host or cells: extracellular vesicles from primary human T lymphoblasts
T2 sequence (Q00839 whole entry): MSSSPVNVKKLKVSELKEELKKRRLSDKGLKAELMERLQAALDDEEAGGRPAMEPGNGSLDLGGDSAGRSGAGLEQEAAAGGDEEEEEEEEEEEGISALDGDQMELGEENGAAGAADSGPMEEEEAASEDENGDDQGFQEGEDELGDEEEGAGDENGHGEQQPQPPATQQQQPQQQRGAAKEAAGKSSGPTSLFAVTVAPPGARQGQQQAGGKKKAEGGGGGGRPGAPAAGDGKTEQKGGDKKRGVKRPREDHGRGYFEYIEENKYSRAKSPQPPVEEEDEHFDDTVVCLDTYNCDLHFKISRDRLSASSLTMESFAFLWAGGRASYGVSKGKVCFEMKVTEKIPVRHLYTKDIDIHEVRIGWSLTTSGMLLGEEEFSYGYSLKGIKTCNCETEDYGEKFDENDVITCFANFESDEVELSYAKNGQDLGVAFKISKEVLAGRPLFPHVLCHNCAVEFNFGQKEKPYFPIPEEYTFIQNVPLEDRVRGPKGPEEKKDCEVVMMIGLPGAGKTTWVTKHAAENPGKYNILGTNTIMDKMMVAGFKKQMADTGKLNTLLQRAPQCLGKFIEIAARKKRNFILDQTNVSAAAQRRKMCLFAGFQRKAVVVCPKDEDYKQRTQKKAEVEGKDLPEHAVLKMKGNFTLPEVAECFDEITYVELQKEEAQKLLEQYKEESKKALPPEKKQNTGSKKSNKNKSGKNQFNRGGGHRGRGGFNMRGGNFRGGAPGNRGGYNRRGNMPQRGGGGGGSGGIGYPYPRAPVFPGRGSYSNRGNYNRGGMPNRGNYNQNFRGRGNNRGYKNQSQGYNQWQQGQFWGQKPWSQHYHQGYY
Method: as §3

NUCL = target: T3, NUCL (Homo sapiens, UniProt P19338); experiment: as above; format: binding; conditions: NUCL precipitated from EV extracts of human T lymphoblasts
T3 construct: endogenous in cells; host or cells: extracellular vesicles from primary human T lymphoblasts
T3 sequence (P19338 whole entry): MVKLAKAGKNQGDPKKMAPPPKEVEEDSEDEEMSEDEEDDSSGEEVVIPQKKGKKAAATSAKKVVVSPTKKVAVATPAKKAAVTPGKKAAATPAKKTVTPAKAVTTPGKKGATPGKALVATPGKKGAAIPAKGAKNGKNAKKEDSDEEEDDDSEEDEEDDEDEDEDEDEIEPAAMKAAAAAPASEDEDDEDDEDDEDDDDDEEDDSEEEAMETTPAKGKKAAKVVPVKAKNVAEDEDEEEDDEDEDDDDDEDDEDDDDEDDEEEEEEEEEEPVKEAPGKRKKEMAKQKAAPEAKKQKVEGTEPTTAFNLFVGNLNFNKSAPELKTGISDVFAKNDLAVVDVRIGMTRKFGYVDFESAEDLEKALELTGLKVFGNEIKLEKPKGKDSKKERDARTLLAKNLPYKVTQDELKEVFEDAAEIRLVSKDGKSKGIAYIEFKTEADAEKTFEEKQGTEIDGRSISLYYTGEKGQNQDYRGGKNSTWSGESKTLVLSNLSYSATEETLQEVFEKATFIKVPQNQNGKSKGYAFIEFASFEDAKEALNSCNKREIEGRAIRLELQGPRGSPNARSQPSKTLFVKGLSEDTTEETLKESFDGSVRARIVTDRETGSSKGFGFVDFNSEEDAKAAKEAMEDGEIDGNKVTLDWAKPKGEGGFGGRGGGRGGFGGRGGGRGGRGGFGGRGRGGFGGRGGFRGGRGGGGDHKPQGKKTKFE
Method: as §3

RS3 = target: T4, RS3 (Homo sapiens, UniProt P23396); experiment: as above; format: binding; conditions: RS3 precipitated from EV extracts of human T lymphoblasts
T4 construct: endogenous in cells; host or cells: extracellular vesicles from primary human T lymphoblasts
Method: as §3

RS4X = target: T5, RS4X (Homo sapiens, UniProt P62701); experiment: as above; format: binding; conditions: RS4X precipitated from EV extracts of human T lymphoblasts
T5 construct: endogenous in cells; host or cells: extracellular vesicles from primary human T lymphoblasts
Method: as §3

hnRNPA1 = target: T6, hnRNPA1 (Homo sapiens, UniProt P09651); experiment: as above; format: binding
T6 construct: endogenous in cells; host or cells: extracellular vesicles from primary human T lymphoblasts
T6 sequence (P09651 whole entry): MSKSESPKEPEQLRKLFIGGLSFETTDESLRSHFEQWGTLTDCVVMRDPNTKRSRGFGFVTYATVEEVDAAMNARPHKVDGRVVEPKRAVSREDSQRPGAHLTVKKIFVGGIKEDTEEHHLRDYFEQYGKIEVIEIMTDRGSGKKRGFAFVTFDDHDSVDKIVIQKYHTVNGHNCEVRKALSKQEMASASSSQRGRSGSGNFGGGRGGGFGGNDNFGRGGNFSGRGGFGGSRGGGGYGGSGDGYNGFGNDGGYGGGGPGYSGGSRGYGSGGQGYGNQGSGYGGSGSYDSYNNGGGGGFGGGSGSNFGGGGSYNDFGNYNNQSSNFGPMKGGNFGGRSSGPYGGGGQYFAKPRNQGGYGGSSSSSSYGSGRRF
Method: as §3

Row | Compound | low-molecular weight hnRNPA2B1 band in EVs (hnRNPA2B1 sumoylation) | levels of miR-17 in EVs (Jurkat T cells [1]) | levels of miR-18 in EVs (Jurkat T cells [1]) | levels of miR-198 in EVs (Jurkat T cells [1]) | miR-198 bound to hnRNPA2B1 (IP-qPCR) (hnRNPA2B1 [2]) | EV secretion (CD81 blot) (Jurkat T cells [3]) | cell death (cytochrome c blot) (Jurkat T cells [3]) | sumo-conjugated proteins (SUMO-1 blot) (sumo-conjugated proteins) | Number of peptides identified by mass spectrometry (hnRNPA2B1 [4]; hnRNPA2B1 precipitated from EV extracts of human T lymphoblasts) | binding of hnRNPA2B1 (in words) (hnRNPA2B1 [4]; pull-down from EV extracts) | Number of peptides identified by mass spectrometry (HNRPC) | Number of peptides identified by mass spectrometry (HNRPU) | Number of peptides identified by mass spectrometry (NUCL) | Number of peptides identified by mass spectrometry (RS3) | Number of peptides identified by mass spectrometry (RS4X) | Number of peptides identified by mass spectrometry (hnRNPA1; hnRNPA1 precipitated from EV extracts of human T lymphoblasts) | binding of hnRNPA1 (in words) (hnRNPA1; pull-down from EV extracts)
1 | CCCCCCCCCCCCCCCc1cccc(O)c1C(=O)O [anacardic acid] | could be readily detected | did not change | did not change | reduced | decreased binding | no changes | no changes | decrease | – | – | – | – | – | – | – | – | –
2 | poly-A | – | – | – | – | – | – | – | – | 0 | no binding | 0 | 0 | 8 | 0 | 0 | 0 | no binding
